Source: ChEMBL document CHEMBL4373715, “Discovery and Biological Evaluations of Halogenated 2,4-Diphenyl Indeno[1,2-b]pyridinol Derivatives as Potent Topoisomerase IIα-Targeted Chemotherapeutic Agents for Breast Cancer” (J Med Chem, 2019)
Active and inactive are the calls of the source. The rule behind the calls is not given here.

Experiments:
HCT-15 = test: Antiproliferative activity against human HCT15 cells measured after 72 hrs by EZ-Cytox assay; assay type: functional, cell-based; settings: HCT-15, 72 h
[1] = Half life in human liver microsomes at 1 mM in presence of NADPH by LC-MS/MS analysis; assay type: ADME, Microsome
MDA-MB-231 [2] = test: Antitumor activity against human MDA-MB-231 cells expressing luciferase xenografted in mouse assessed as reduction in tumor weight at 12 mg/kg, iv administered once daily for 10 days measured 18 days post-last dose by bioluminescent imaging analysis; assay type: functional, organism-based
[3] = Stability in mouse plasma assessed as parent compound remaining at 1 mM measured after 2 hrs by LC-MS/MS analysis; assay type: ADME, cell-free; settings: 1000 µM
[4] = Protein binding in rat plasma assessed as unbound fraction at 1 mM measured after 1 hr by LC-MS/MS analysis; assay type: ADME, cell-free
[5] = Toxicity in female ICR mouse assessed as physical abnormalities at 50 to 100 mg/kg, iv administered as single dose measured up to 7 days; assay type: organism-based; settings: in vivo, 168 h
[6] = Stability in rat plasma assessed as parent compound remaining at 1 mM measured after 4 hrs by LC-MS/MS analysis; assay type: ADME, cell-free; settings: 1000 µM
[7] = Stability in mouse plasma assessed as parent compound remaining at 1 mM measured after 0.5 hrs by LC-MS/MS analysis; assay type: ADME, cell-free; settings: 1000 µM
[8] = biological target: DNA topoisomerase 2-alpha (Homo sapiens) (UniProt P11388); test: Inhibition of recombinant human topoisomerase 2alpha-mediated relaxation of supercoiled pBR322 DNA at 20 uM measured after 30 mins by ethidium bromide staining based agarose gel electrophoresis relative to control
Chain of DNA topoisomerase 2-alpha (Homo sapiens) (P11388 whole entry): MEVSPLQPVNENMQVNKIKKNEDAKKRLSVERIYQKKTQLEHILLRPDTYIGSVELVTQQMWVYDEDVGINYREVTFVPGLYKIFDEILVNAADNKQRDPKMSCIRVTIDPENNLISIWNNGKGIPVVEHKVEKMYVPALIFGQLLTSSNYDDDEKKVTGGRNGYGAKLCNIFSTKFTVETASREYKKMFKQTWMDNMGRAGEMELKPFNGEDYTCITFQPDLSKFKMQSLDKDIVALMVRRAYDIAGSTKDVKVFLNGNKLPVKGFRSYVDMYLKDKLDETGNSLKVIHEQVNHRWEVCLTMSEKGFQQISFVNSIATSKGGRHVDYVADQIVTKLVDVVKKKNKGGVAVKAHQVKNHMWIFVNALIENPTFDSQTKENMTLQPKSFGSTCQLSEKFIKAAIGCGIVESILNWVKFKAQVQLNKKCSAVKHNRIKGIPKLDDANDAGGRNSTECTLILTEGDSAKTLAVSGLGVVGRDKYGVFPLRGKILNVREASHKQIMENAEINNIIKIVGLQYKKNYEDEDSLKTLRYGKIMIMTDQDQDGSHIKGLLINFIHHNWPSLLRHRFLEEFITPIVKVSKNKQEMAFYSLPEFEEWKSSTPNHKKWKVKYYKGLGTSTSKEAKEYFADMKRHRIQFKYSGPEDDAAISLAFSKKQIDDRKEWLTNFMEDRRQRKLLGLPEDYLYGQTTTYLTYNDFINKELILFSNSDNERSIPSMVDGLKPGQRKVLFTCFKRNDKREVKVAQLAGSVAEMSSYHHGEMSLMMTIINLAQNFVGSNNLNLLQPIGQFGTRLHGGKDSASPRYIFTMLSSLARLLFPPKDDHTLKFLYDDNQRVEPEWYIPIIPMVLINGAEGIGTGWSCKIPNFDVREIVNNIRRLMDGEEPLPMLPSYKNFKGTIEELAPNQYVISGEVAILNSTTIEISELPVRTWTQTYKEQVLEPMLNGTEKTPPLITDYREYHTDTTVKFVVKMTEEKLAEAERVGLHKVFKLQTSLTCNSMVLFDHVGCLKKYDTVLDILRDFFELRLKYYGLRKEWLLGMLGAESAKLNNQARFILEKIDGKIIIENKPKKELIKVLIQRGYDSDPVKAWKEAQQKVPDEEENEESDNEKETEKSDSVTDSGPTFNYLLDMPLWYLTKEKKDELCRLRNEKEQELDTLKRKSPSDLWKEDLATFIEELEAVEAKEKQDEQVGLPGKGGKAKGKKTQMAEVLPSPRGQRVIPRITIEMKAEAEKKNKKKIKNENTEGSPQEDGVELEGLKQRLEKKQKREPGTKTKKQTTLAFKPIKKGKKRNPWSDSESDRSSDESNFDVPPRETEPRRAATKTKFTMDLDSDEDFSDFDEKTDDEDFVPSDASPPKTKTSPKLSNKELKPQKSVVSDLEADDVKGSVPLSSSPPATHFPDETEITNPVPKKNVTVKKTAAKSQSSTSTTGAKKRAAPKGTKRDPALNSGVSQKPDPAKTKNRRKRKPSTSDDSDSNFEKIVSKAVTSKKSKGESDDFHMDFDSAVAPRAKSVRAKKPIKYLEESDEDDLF

[9] = Toxicity in female ICR mouse assessed as mortality at 100 mg/kg, iv administered as single dose measured daily for 7 days (reference value: 0%); assay type: organism-based; settings: in vivo
[10] = Stability in rat plasma assessed as parent compound remaining at 1 mM measured immediately by LC-MS/MS analysis; assay type: ADME, cell-free; settings: read-out: Stability
[11] = Stability in mouse plasma assessed as parent compound remaining at 1 mM measured after 0.25 hrs by LC-MS/MS analysis; assay type: ADME, cell-free; settings: read-out: Stability
[12] = Toxicity in male ICR mouse assessed as change in body weight at 50 to 100 mg/kg, iv administered as single dose measured daily for 7 days; assay type: organism-based; settings: in vivo, 168 h
[13] = Stability in rat plasma assessed as parent compound remaining at 1 mM measured after 1 hr by LC-MS/MS analysis; assay type: ADME, cell-free; settings: read-out: Stability
Calf thymus DNA = test: Inhibition of EtBr binding to calf thymus DNA up to 40 uM measured after 30 mins by fluorescence assay; assay type: nucleic-acid assay; settings: Bos taurus
[14] = Stability in mouse plasma assessed as parent compound remaining at 1 mM measured immediately by LC-MS/MS analysis; assay type: ADME, cell-free; settings: read-out: Stability
[15] = Stability in human plasma assessed as parent compound remaining at 1 mM measured immediately by LC-MS/MS analysis; assay type: ADME, cell-free; settings: read-out: Stability
[16] = Protein binding in human plasma assessed as unbound fraction at 1 mM measured after 1 hr by LC-MS/MS analysis; assay type: ADME, cell-free
[17] = Toxicity in male ICR mouse assessed as physical abnormalities at 50 to 100 mg/kg, iv administered as single dose measured up to 7 days; assay type: organism-based; settings: in vivo, 168 h
T47D [18] = test: Induction of apoptosis in human T47D cells assessed as increase in cleaved PARP expression at 10 to 30 uM measured after 24 hrs by Western blot analysis; assay type: functional, cell-based
[19] = Stability in human plasma assessed as parent compound remaining at 1 mM measured after 2 hrs by LC-MS/MS analysis; assay type: ADME, cell-free; settings: read-out: Stability
MDA-MB-436 = test: Antiproliferative activity against human MDA-MB-436 cells measured after 72 hrs by Ez-cytox assay; assay type: functional, cell-based; settings: MDA-MB-436, 72 h
[20] = biological target: DNA topoisomerase 2-alpha (Homo sapiens) (UniProt P11388); test: Poison activity at recombinant human topoisomerase-2 alpha assessed as stabilization of enzyme-DNA cleavage complex by measuring linear DNA formation at 500 uM using supercoiled pBR322 DNA as substrate after 60 mins by agarose gel electrophoresis method
DU-145 = test: Antiproliferative activity against human DU145 cells measured after 72 hrs by EZ-Cytox assay; assay type: functional, cell-based; settings: DU-145, 72 h
[21] = Stability in human plasma assessed as parent compound remaining at 1 mM measured after 0.5 hrs by LC-MS/MS analysis; assay type: ADME, cell-free; settings: read-out: Stability
[22] = Stability in mouse plasma assessed as parent compound remaining at 1 mM measured after 1 hr by LC-MS/MS analysis; assay type: ADME, cell-free; settings: read-out: Stability
[23] = Stability in rat plasma assessed as parent compound remaining at 1 mM measured after 2 hrs by LC-MS/MS analysis; assay type: ADME, cell-free; settings: 1000 µM
[24] = Half life in ICR mouse liver microsomes at 1 mM in presence of NADPH by LC-MS/MS analysis; assay type: ADME, Microsome
T47D [25] = test: Induction of apoptosis in human T47D cells assessed as decrease in bcl-2 expression at 10 to 30 uM measured after 24 hrs by Western blot analysis; assay type: functional, cell-based
[26] = Protein binding in mouse plasma assessed as unbound fraction at 1 mM measured after 1 hr by LC-MS/MS analysis; assay type: ADME, cell-free
[27] = Stability in rat plasma assessed as parent compound remaining at 1 mM measured after 0.25 hrs by LC-MS/MS analysis; assay type: ADME, cell-free; settings: read-out: Stability
[28] = Toxicity in female ICR mouse assessed as mortality at 50 mg/kg, iv administered as single dose measured daily for 7 days (reference value: 0%); assay type: organism-based; settings: in vivo
[29] = Stability in human plasma assessed as parent compound remaining at 1 mM measured after 0.25 hrs by LC-MS/MS analysis; assay type: ADME, cell-free; settings: read-out: Stability
[30] = biological target: DNA topoisomerase 2-alpha (Homo sapiens) (UniProt P11388); test: Poison activity at topoisomerase-2 alpha in human T47D cells assessed as stabilization of enzyme-DNA cleavage complex by measuring reduction in topo-2alpha level at 50 uM measured after 2 hrs by Western blot analysis; assay type: cell-based
HeLa = test: Antiproliferative activity against human HeLa cells measured after 72 hrs by EZ-Cytox assay; assay type: functional, cell-based
[31] = Protein binding in rat plasma assessed as unbound fraction at 1 mM measured immediately by LC-MS/MS analysis; assay type: ADME, cell-free
MDA-MB-231 [32] = test: Antitumor activity against human MDA-MB-231 cells expressing luciferase xenografted in mouse assessed as tumor growth inhibition at 12 mg/kg, iv administered once daily for 10 days measured on day 4 and 11 by bioluminescent imaging analysis; assay type: functional, organism-based
[33] = Protein binding in human plasma assessed as unbound fraction at 1 mM measured immediately by LC-MS/MS analysis; assay type: ADME, cell-free
[34] = biological target: DNA topoisomerase 2-alpha (Homo sapiens) (UniProt P11388); test: Poison activity at topoisomerase-2 alpha in human T47D cells assessed as stabilization of enzyme-DNA cleavage complex by measuring reduction in topo-2alpha level at 50 uM measured after 2 hrs in presence of etoposide by Western blot analysis; assay type: cell-based
[35] = Half life in Sprague-Dawley rat liver microsomes at 1 mM in presence of NADPH by LC-MS/MS analysis; assay type: ADME, Microsome

Oc1ccc(-c2cc(-c3ccccc3Cl)nc3c2Cc2c(O)cccc2-3)cc1
IC50 (HCT-15): 14 nM | half-life [1]: 6.53 h | Activity (MDA-MB-231 [2]): Active | Stability [3]: 116.3% | fraction unbound at 1 h [4]: 1 | Activity [5]: Non-Toxic | Stability [6]: 130.4% | Stability [7]: 117.1% | inhibition [8]: 78.9% | mortality at 168 h [9]: 0% | remaining at 0 h [10]: 100% | remaining at 0.25 h [11]: 109% | Activity [12]: Non-Toxic | remaining at 1 h [13]: 111% | inhibition (Calf thymus DNA): inactive | remaining at 0 h [14]: 100% | remaining at 0 h [15]: 100% | fraction unbound at 1 h [16]: 0.959 | Activity [17]: Non-Toxic | Activity (T47D [18]): Active | remaining at 2 h [19]: 100% | IC50 (MDA-MB-436): 2640 nM | Activity [20]: Active | IC50 (DU-145): 72 nM | remaining at 0.5 h [21]: 99.3% | remaining at 1 h [22]: 110% | Stability [23]: 119.6% | half-life [24]: 2.61 h | Activity (T47D [25]): Active | fraction unbound at 1 h [26]: 0.999 | remaining at 0.25 h [27]: 102% | mortality at 168 h [28]: 0% | remaining at 0.25 h [29]: 98.7% | Activity [30]: Active | IC50 (HeLa): 2460 nM | fraction unbound at 0 h [31]: 1 | TGI (MDA-MB-231 [32]): Active | fraction unbound at 0 h [33]: 1 | Activity [34]: Active | half-life [35]: 26 h
